Laboratory results reported in patent US20160232293A1, “DRUG SENSITIVITY BIOMARKERS AND METHODS OF IDENTIFYING AND USING DRUG SENSITIVITY BIOMARKERS” (SANFORD-BURNHAM MEDICAL RESEARCH INSTITUTE, priority 2013, published 2016).

Experiments:
[1] = TCGA survival analysis of patients treated with CCLE drugs, grouped by mutations in resistance-associated PFRs; type: in vivo, human; settings: for outcome of treated patients with mutations in PFRs associated with resistance vs mutations in other regions of the same proteins or no mutations: TCGA patients treated with Topoisomerase inhibitors Irinotecan and Topotecan (n=188), pooled, p<0.01; for prediction of patient outcome by mutation status of the whole proteins that contain the associated PFRs: TCGA patients treated with Topoisomerase inhibitors, whole-protein level
From the text: Both clinical and mutation data for the 3,205 tumors described in the pan-cancer analysis of the TCGA were downloaded. Data from patients that had not been treated with any of the drugs included in the CCLE was then filtered out. Since most drugs included in the CCLE are still in under clinical research, there were only enough patients to analyze 2 different drugs: paclitaxel (n=778) and irinotecan (n=58). Each of these subsets of patients have then been classified in 3 groups: those that have a mutation in a PFR that, according to the analysis, increases resistance to the drug used to treat them; those with mutations in other regions of the same genes; and those with no mutations in these genes.
As a result very few patients in the TCGA dataset carry mutations in the former type of regions and were treated with the matching drug. The survival analysis was performed using the “Survival” package for R.

human cancer cell lines = assay: e-Drug analysis: CCLE drug activity (activity area) in cell lines with missense mutations in a protein functional region (PFR) or whole protein versus cell lines without; type: cell-based
From the text: The CCLE (Cancer Cell Line Encyclopedia; website broadinstitute.org/ccle; Barretina et al., Nature 483:603-607 (2012)) dataset, which includes the mutation profiles of 1,668 genes in 906 human cancer cell lines and drug activity data for 24 different anticancer compounds, was used in the present study. The analysis was focused on missense mutations, as truncating mutations can sometimes be misleading when performing the analysis in terms of functional regions. For example, when analyzing a protein that contains two different domains, if a truncating mutation happens in the first domain, it is not obvious whether the functional consequences of the mutation are caused by the fact that the first domain is altered or that the second domain is missing. […] From the original 42,603 genomic-point mutations in 1,668 genes, 156,817 protein missense mutations were obtained in 9,311 proteins.
CCLE contains data on the drug activity of 24 different compounds in 479 cell lines from 8-point dose-response curves. […] In our analysis only the activity area was used because, according to the CCLE, it captures simultaneously both variables of drug activity: its efficacy and its potency.
For the present study, protein functional regions were defined as domains or intrinsically disordered regions. […] To identify protein domains, annotated Pfam domains were retrieved from ENSEMBL for each protein isoform. A set of 1,300 potential domains identified by AIDA (ab initio domain assembly; Xu et al., Nucleic Acids Research 12:W308-W313 (2014) (Web Server issue); Internet site ffas.burnham.org/AIDA/), an algorithm based on remote homology, were also included. Foldindex (Prilusky et al., Bioinformatics 21(16):3435-8 (2005)) was used to predict intrinsically disordered regions for each protein. Those regions with a predicted unfolded score below −0.1 were included in the present study.
The different mutations of each cell line were mapped to these protein features, giving a total of 30,798 altered regions in 906 cell lines. These regions are divided into 19,918 Pfam domains and 10,880 intrinsically disordered regions. Note that the features can overlap, as the predictions were performed independently and there is no reason why, for example, an intrinsically unfolded region cannot overlap with (or even be located within) a Pfam domain. Note also that these numbers refer to PFRs in all known protein isoforms according to ENSEMBL v72.
The e-Drug analysis protocol looks for PFRs that, when mutated, correlate with drug activity of the different drugs. […] A Wilcoxon test was then performed comparing the drug activity of each compound in the two groups and kept those with a p-value below 0.01. Finally, for those gene regions associated to a certain drug, the activity of the cell lines mutated in the region of interest was compared to the activity of cell lines mutated in other regions of the gene. […] In this case, since the number of cell lines in both groups is lower and fewer tests were performed, a significance threshold of 0.05 instead of 0.01 was established. True positives were considered those PFR that passed both thresholds and that are not in proteins that show an association (p<0.01) with the same drug at the whole-protein level. Note that the analysis is performed independently for each PFR.
To overcome these limitations and decrease the number of false positives among the associations three different thresholds were required for an association to be considered positive (see

CCc1c2c(nc3ccc(OC(=O)N4CCC(N5CCCCC5)CC4)cc13)-c1cc3c(c(=O)n1C2)COC(=O)[C@]3(O)CC [Irinotecan]
outcome of treated patients with mutations in PFRs associated with resistance vs mutations in other regions of the same proteins or no mutations [1]: worse outcomes
prediction of patient outcome by mutation status of the whole proteins that contain the associated PFRs ([1]; p>0.9): cannot predict the outcome

CC(=O)O[C@H]1C(=O)[C@@]2(C)[C@H]([C@H](OC(=O)c3ccccc3)[C@]3(O)C[C@H](OC(=O)[C@H](O)[C@@H](NC(=O)c4ccccc4)c4ccccc4)C(C)=C1C3(C)C)[C@]1(OC(C)=O)CO[C@@H]1C[C@@H]2O [Paclitaxel]
outcome of treated patients with mutations in PFRs associated with increased resistance ([1]; TCGA patients treated with paclitaxel (n=778), p>0.9): no differences

CC[C@@]1(O)C(=O)OCc2c1cc1n(c2=O)Cc2cc3c(CN(C)C)c(O)ccc3nc2-1 [Topotecan]
outcome of treated patients with mutations in PFRs associated with resistance vs mutations in other regions of the same proteins or no mutations [1]: worse outcomes
prediction of patient outcome by mutation status of the whole proteins that contain the associated PFRs ([1]; p>0.9): cannot predict the outcome

C[C@@H](Oc1cc(-c2cnn(C3CCNCC3)c2)cnc1N)c1c(Cl)ccc(F)c1Cl [PF2341066]
sensitivity of cell lines with mutations in the ERBB3 receptor domain (human cancer cell lines; PFR level analysis, N-terminal EGF receptor domain of ERBB3): resistant
behavior of cell lines with mutations in any other PFR of ERBB3 (human cancer cell lines; PFR level analysis, other PFRs of ERBB3 such as the kinase domain): do not show any specific behavior
activity of the drug in cell lines with mutations in ERBB3 (human cancer cell lines; protein level analysis, ERBB3 whole protein): do not show any bias

C#Cc1cccc(Nc2ncnc3cc(OCCOC)c(OCCOC)cc23)c1 [Erlotinib]
association of MSH6 mutations with the drug at protein level (human cancer cell lines; protein level analysis, MSH6 whole protein): potential association

Cn1c(Nc2ccc(C(F)(F)F)cc2)nc2cc(Oc3ccnc(-c4ncc(C(F)(F)F)[nH]4)c3)ccc21 [RAF265]
drug activity associated with mutations in the ATPase domain (Pf00488) of MSH6 (human cancer cell lines; PFR level, missense mutations, MSH6 Pf00488): higher

CS(=O)(=O)CCNCc1ccc(-c2ccc3ncnc(Nc4ccc(OCc5cccc(F)c5)c(Cl)c4)c3c2)o1 [Lapatinib]
drug activity associated with mutations in the connector domain (Pf05188) of MSH6 (human cancer cell lines; PFR level, missense mutations, MSH6 Pf05188): higher
